Test [1] deals with mixed cortical neuronal cultures. The experiment in a line: neuroprotection against NMDA induced toxicity in mixed cortical neuronal cultures (Trypan Blue Dye Exclusion). In kind it is cell-based, rat (foetal rats). The following applies: prevention of toxicity by NMDA 500 μM, 20 min exposure, 3 min preincubation, viability after 24 h. The protocol: The efficacy of the compounds of the invention as neuroprotective agents, based upon their ability to prevent EEA induced toxicity in vitro, was evaluated in mixed cortical neuronal cultures, following the method reported below.
Mixed cortical neuronal cultures from foetal rats at 16 days of gestation were prepared as described by Choi (J. Neur. Sci. 7: 357-368, 1987).
Briefly, dissociated cells were plated on poly-L-lysine coated multiwell plates at density of 1*10^5 cells/cm^2 in MEM with Earle's salts supplemented with 21 mM D-glucose, 2 mM L-glutamine, 50 μg/ml Streptomicin, 50 IU Penicillin, 10% Foetal Calf Serum and 10% Horse Serum. Cultures were kept at 37° C., 5% CO2 and survived about 5 weeks. After 7 days in vitro, astrocites proliferation was inhibited by adding 10 μM Cytosine Arabinoside for 48 hours; the medium was subsequently substituted twice a week with a fresh medium without foetal calf serum (Hatley, J. Pharm. and Exp. Ther. 250 (II);752-758, 1989).
Only nature cortical cultures, from 14 DIV on, were used for the study.
Experiments were performed at 25° C. as follows: cells were washed once with a Locke's buffer, (128 mM NaCl, […] KCl, 1.2 mM Na2 HPO4, 2.7 mM CaCl2, 20 mM Hepes and 10 mM D-glucose) pH=7.4, then preincubated with the test compounds for 3 min. followed by a 20 min. exposure to N-methyl-D-aspartate (NMDA) (500 μM).
The incubation was stopped by removing Locke's buffer and substituting the conditioned medium. After 24 hours at 37° C., 5% CO2, Trypan Blue Dye Exclusion Test (0.04%) was used for evaluating the cells viability.

Test [2] concerns focal ischemia in mice (Middle Cerebral Artery occlusion). Kind of test: antiischemic activity in vivo in the model of focal ischemia in mice (MCA electrocoagulation), infarct volume. On the set-up: species or system mice (male Swiss CD). The following applies: male Swiss mice; for Infarct volume: Means ± SEM after MCA occlusion, day 4, 7 mg/Kg i.p. 5 min and 6 h after ischemia, then twice a day on days 2, 3 and 4, saline 20.9 ± 1.7, P < 0.01 from controls. The protocol: The antiischemic activity of the compounds of the present invention was evaluated in vivo in the model of focal ischemia in mice.
Focal ischemia was produced in mice by electrocoagulation of the Middle Cerebral Artery (MCA) according the procedure reported by Welsh et al. (Welsh F A, Sakamoto T, McKee A, Sims R E, J Neurochem: 49: 846-851, 1987). Briefly, male Swiss CD mice (C. River, Milan, Italy) were anesthetised with chloral hydrate (500 mg/Kg i.p.); an incision was made on the temporo-parietal region of the head and a small burr hole was drilled into the lateral outer surface of the skull just over the MCA. The stem of the MCA was occluded by microbipolar coagulation. Animals were maintained under an heating lamp during surgery and for two hours afterwards.
Four days after the occlusion, mice were decapitated and the brains stored a -20° C. until sectioned for histological examination.
Coronal sections (50 μm thick) of the frozen brains were taken every 1.00 mm in order to evaluate the infarct volume.
The slices were stained with cresyl violet and the cortical infarct area of each slice was determined by an image analyzing system (Ibas 20, Kontron, Milan, Italy). Infarct volume was calculated from the infarct area on each slice and the distance between succeeding slices.
The treatment schedule consisted in the administration of the tested compound 5 min and 6 h after ischemia during the first day after surgery and then twice a day on days 2, 3 and 4 according to published data (Gotti B. et al.; Brain Research, 522,290-307, 1990). The tested compounds were given i.p. at the dose of 7 mg/Kg.
Dosing was performed till sacrifice. The time schedule, the doses and the route of administration of the tested compounds were selected on the basis of preliminary experiments.

Regarding `ON=C(CN1CCC(Cc2ccccc2)CC1)c1cc(Br)no1` [Compound 17, (±)-2-(4-Benzyl-piperidin-1-yl)-1-(3-bromo-isoxazol-5-yl)-ethan-1-one-oxyme], it took 2130 nM to reach a half-maximal effect in test [1] (EC50).

Turning to `O=C(c1ccc(F)cc1)C1CCN(CC(O)c2cc(Br)no2)CC1` (centres unmarked) [Compound 25, 2-[4-(4-fluoro-benzoyl)piperidin-1-yl]-1-(3-bromo-isoxazol-5-yl)-ethan-1-ol], the response in test [1] (Rattus norvegicus) was half-maximal at 22000 nM (EC50).

As to `COc1cc(C(O)CN2CCC(C(=O)c3ccc(F)cc3)CC2)on1` (racemic) [Compound 27, (±)2-[4-(p-Fluoro-benzoyl)-piperidin-1-yl]-1-(3-methoxy-isoxazol-5-yl)-ethan-1-ol], in test [1] (Rattus norvegicus), the concentration for a half-maximal effect (EC50) (in general, the concentration needed to bring the measured effect to its halfway point) amounted to 640 nM.

On to `COc1cc(C(O)CN2CCC(Cc3ccccc3)CC2)on1` (racemic) [Compound 3, (±)-2-(4-Benzyl-piperidin-1-yl)-1-(3-methoxy-isoxazol-5-yl)-ethan-1-ol], for which, in test [2] (7 mg/Kg i.p., day 4, versus saline), the “Effect on infarct volume compared with saline-treated mice (in words)” value is given as “significantly reduce infarct volume”. Besides, the Infarct volume in test [2] (7 mg/kg) is on record as 13.6 ± 1.5 mm^3; in test [2] (listed as Example 2, 7 mg/kg), 13.6±1.5 mm^3. Moreover, a half-maximal effect in test [1] (Rattus norvegicus) (EC50) was put at 3290 nM.

Turning to `OC(CN1CCC(Cc2ccccc2)CC1)c1cc(Br)no1` (racemic) [Compound 1, (±)-2-(4-Benzyl-piperidin-1-yl)-1-(3-bromo-isoxazol-5-yl) -ethan-1-ol], the EC50 in test [1] (Rattus norvegicus) was found to be 2020 nM.

(Values after patent US5968955A, “Disubstituted piperidine derivatives as neuroprotective agents” (Pharmacia & Upjohn S.p.A., priority 1995, dated 1999).)
